Assays:
[1] = test system: TRZAS; experiment: Greenhouse trial: PE application vs application 7 days prior to sowing (test method 6); type: in vivo, Triticum aestivum, summer wheat; details: g of AS/ha: (A) 90, (B) 1200, (C) 140, (A)+(B)+(C) 90 + 1200 + 140
Protocol: (§1) In the standard design of the test, seeds of various broad-leaved weed and weed grass biotypes (origins) were sown in a 8-13 cm diameter pot filled with natural soil of a standard field soil (loamy silt; non-sterile) and covered with a covering soil layer of about 1 cm. The pots were then cultivated in a greenhouse (12-16 h of light, temperature day 20-22° C., night 15-18° C.) until the time of application. The pots were treated on a laboratory track sprayer with spray liquors comprising the compositions according to the invention, mixtures of the prior art or components used individually. Application of the active compounds or active compound combinations formulated as WG, WP, EC or otherwise was carried out at the appropriate growth stages of the plants. The application rate for the spray application was 100-600 l of water/ha. After the treatment, the plants were returned to the greenhouses.
(§2) About 3 weeks after the application, the soil action or/and foliar action was assessed visually according to a scale of 0-100% in comparison to an untreated comparative group: 0%=no noticeable effect compared to the untreated comparative group; 100%=full effect compared to the untreated comparative group. […]

[2] = test system: STEME; experiment: Greenhouse trial: resistant biotypes following PE application (test method 9); type: in vivo, Stellaria media; details: g of AS/ha: (A) 90, (B) 1200, (C) 140, (A)+(B)+(C) 90 + 1200 + 140, iodosulfuron 10; for activity STEME resistant / activity STEME sensitive: PE; for activity STEME resistant: resistant biotype; for activity STEME sensitive: sensitive biotype
Protocol: as §1
(§3) About 3 weeks after the application, the soil action or/and foliar action was assessed visually according to a scale of 0-100% in comparison to an untreated comparative group: 0%=no noticeable effect compared to the untreated comparative group; 100%=full effect compared to the untreated comparative group.
(§4) (notes: the term “seeds” also includes vegetative propagation forms such as, for example, rhizome pieces; abbreviations used: h light=hours of illumination, g of AS/ha=gram of active substance per hectare, I/ha=liter per hectare, S=sensitive, R=resistant) • 1. Pre-emergence action against weeds: seeds of various broad-leaved weed and weed grass biotypes (origins) were sown in a 8-13 cm diameter pot filled with natural soil of a standard field soil (loamy silt; non-sterile) and covered with a covering soil layer of about 1 cm. The pots were then cultivated in a greenhouse (12-16 h of light, temperature day 20-22° C., night 15-18° C.) until the time of application. The pots were treated at the BBCH stage 00-10 of the seeds/plants on a laboratory track sprayer with spray liquors comprising the compositions according to the invention, mixtures or components used individually, as WG, WP, EC or other formulations. The application rate for the spray application was 100-600 l of water/ha. After the treatment, the plants were returned to the greenhouses and, when required, treated with fertilizer and watered. • 2. Post-emergence action against weeds: seeds of various broad-leaved weed and weed grass biotypes (origins) were sown in a 8-13 cm diameter pot filled with natural soil of a standard field soil (loamy silt; non-sterile) and covered with a covering soil layer of about 1 cm. The pots were then cultivated in a greenhouse (12-16 h of light, temperature day 20-22° C., night 15-18° C.) until the time of application. The pots were treated at various BBCH stages between 11-25 of the seeds/plants, i.e. generally between two to three weeks after the start of the cultivation, on a laboratory track sprayer with spray liquors comprising the compositions according to the invention, mixtures or components used individually, as WG, WP, EC or other formulations. The application rate for the spray application was 100-600 l of water/ha. After the treatment, the plants were returned to the greenhouses and, when required, treated with fertilizer and watered. • 3. Pre-emergence action against weeds with and without incorporation of active compound: seeds of various broad-leaved weed and weed grass biotypes (origins) were sown in a 8-13 cm diameter pot filled with natural soil of a standard field soil (loamy silt; non-sterile). […]

[3] = test system: MATCH; experiment: Greenhouse trial: different sowing depths on PE application (test method 10); type: in vivo, Matricaria chamomilla; details: g of AS/ha: (A) 90, (B) 1200, (C) 140, (A)+(B)+(C) 90 + 1200 + 140; for activity MATCH 5 mm: sowing depth 5 mm; for activity MATCH 20 mm: sowing depth 20 mm
Protocol: as §1, §3, §4

[4] = test system: MATCH; experiment: Greenhouse trial: PE application with different irrigation variants (test method 7); type: in vivo, Matricaria chamomilla; details: g of AS/ha: (A) 120, (B) 1200, (C) 140, (A)+(B)+(C) 120 + 1200 + 140
Protocol: as §1, §3, §4

[5] = test system: HORVS; experiment: Greenhouse trial: PE application vs application 7 days prior to sowing (test method 6); type: in vivo, Hordeum vulgare, summer barley; details: g of AS/ha: (A) 90, (B) 1200, (C) 140, mixture 90 + 1200 + 140
Protocol: as §1, §2

[6] = test system: MATCH; experiment: Greenhouse trial: different soil types (test method 8); type: in vivo, Matricaria chamomilla; details: g of AS/ha: (A) 120, (B) 1200, (C) 140, (A)+(B)+(C) 120 + 1200 + 140
Protocol: as §1, §3, §4

[7] = test system: APESV; experiment: Greenhouse trial: different sowing depths on PE application (test method 10); type: in vivo, Apera Spica-venti; details: g of AS/ha: (A) 90, (B) 1200, (C) 140, (A)+(B)+(C) 90 + 1200 + 140; for activity APESV 5 mm: sowing depth 5 mm; for activity APESV 20 mm: sowing depth 20 mm
Protocol: as §1, §3, §4

[8] = test system: POAAN; experiment: Greenhouse trial: PE soil application vs incorporation into the soil (test methods 1, 3 and 4); type: in vivo, Poa annua; details: g of AS/ha: (A) 120, (B) 1200, (C) 140, (A)+(B)+(C) 120 + 1200 + 140
Protocol: as §1, §3, §4

[9] = test system: HORVS; experiment: Greenhouse trial: different soil types (test method 8); type: in vivo, Hordeum vulgare, summer barley; details: g AS/ha: (A) 120, (B) 1200, (C) 140, (A)+(B)+(C) 120 + 1200 + 140
Protocol: as §1, §3
(§5) (notes: the term “seeds” also includes vegetative propagation forms such as, for example, rhizome pieces; abbreviations used: h light=hours of illumination, g of AS/ha=gram of active substance per hectare, I/ha=liter per hectare, S=sensitive, R=resistant) • 1. Pre-emergence action against weeds: seeds of various broad-leaved weed and weed grass biotypes (origins) were sown in a 8-13 cm diameter pot filled with natural soil of a standard field soil (loamy silt; non-sterile) and covered with a covering soil layer of about 1 cm. The pots were then cultivated in a greenhouse (12-16 h of light, temperature day 20-22° C., night 15-18° C.) until the time of application. […]

[10] = test system: TRZAS; experiment: Greenhouse trial: PE soil application vs incorporation into the soil (test methods 1, 3 and 4); type: in vivo, Triticum aestivum, summer wheat; details: g of AS/ha: (A) 120, (B) 1200, (C) 140, (A)+(B)+(C) 120 + 1200 + 140
Protocol: as §1, §2

[11] = test system: APESV; experiment: Greenhouse trial: PO application (test methods 2 and 5); type: in vivo, Apera Spica-venti; details: g of AS/ha: (A) 120, (B) 1600, (C) 140, (A)+(B)+(C) 120 + 1600 + 140
Protocol: as §1, §3, §5

[12] = test system: AVEFA; experiment: Greenhouse trial: PE application vs application 7 days prior to sowing (test method 6); type: in vivo, Avena fatua
Protocol: as §1, §3, §4

[13] = test system: LOLPE; experiment: as above; type: in vivo, Lolium perenne
Protocol: as §1, §3, §4

[14] = test system: LOLPE; experiment: Greenhouse trial: different soil types (test method 8); type: in vivo, Lolium perenne; details: g of AS/ha: (A) 120, (B) 1200, (C) 90, (A)+(B)+(C) 120 + 1200 + 90
Protocol: as §1, §3, §4

[15] = test system: POAAN; experiment: Greenhouse trial: PO application (test methods 2 and 5); type: in vivo, Poa annua; details: g of AS/ha: (A) 120, (B) 1600, (C) 140, (A)+(B)+(C) 120 + 1600 + 140
Protocol: as §1, §3, §5

[16] = test system: LOLPE; experiment: Greenhouse trial: PE application with different irrigation variants (test method 7); type: in vivo, Lolium perenne; details: g of AS/ha: (A) 120, (B) 1200, (C) 140, (A)+(B)+(C) 120 + 1200 + 140
Protocol: as §1, §3, §4

[17] = test system: LOLSS; experiment: Greenhouse trial: resistant biotypes following PE application (test method 9); type: in vivo, Lolium species; details: g of AS/ha: (A) 90, (B) 1200, (C) 140, (A)+(B)+(C) 90 + 1200 + 140, iodosulfuron 10; for activity LOLSS resistant / activity LOLSS sensitive: PE; for activity LOLSS resistant: resistant biotype; for activity LOLSS sensitive: sensitive biotype
Protocol: as §1, §3, §4

[18] = test system: AVEFA; experiment: Greenhouse trial: PE application with different irrigation variants (test method 7); type: in vivo, Avena fatua; details: g of AS/ha: (A) 120, (B) 1200, (C) 140, (A)+(B)+(C) 120 + 1200 + 140
Protocol: as §1, §3, §4

[19] = test system: HORVS; experiment: Greenhouse trial: PO application (test methods 2 and 5); type: in vivo, Hordeum vulgare, summer barley; details: g of AS/ha: (A) 120, (B) 1600, (C) 140, (A)+(B)+(C) 120 + 1600 + 140
Protocol: as §1, §2

[20] = PE application, g of AS/ha: (A) 90, (B) 1200, (C) 140, mixture 90 + 1200 + 140
[21] = application 7 days prior to sowing, g of AS/ha: (A) 90, (B) 1200, (C) 140, (A)+(B)+(C) 90 + 1200 + 140

Structure (SMILES) | activity STEME resistant [2] [%] | activity STEME sensitive [2] [%] | activity MATCH 5 mm [3] [%] | activity MATCH 20 mm [3] [%] | activity MATCH ([4]; Irrigation from above) [%] | activity MATCH ([4]; Irrigation from below) [%] | activity MATCH IU soil [6] [%] | activity MATCH IU/EC73 soil [6] [%] | activity APESV 5 mm [7] [%] | activity APESV 20 mm [7] [%] | activity POAAN ([8]; Incorporation) [%] | activity POAAN ([8]; PE application) [%] | activity APESV [11] [%] | activity AVEFA [12, 20] [%] | activity AVEFA [12, 21] [%] | activity LOLPE [13, 20] [%] | activity LOLPE [13, 21] [%] | activity LOLPE IU soil [14] [%] | activity LOLPE IU/EC73 soil [14] [%] | activity POAAN [15] [%] | also measured
CSc1nnc(C(C)(C)C)c(=O)n1N [(C) metribuzin, 4-amino-6-(1,1-dimethylethyl)-3-(methylthio)-1,2,4-triazon-5(4H)-one] | 98 | 100 | 100 | 70 | 0 | 60 | 0 | 15 | 75 | 100 | 68 | 0 | 79 | 10 | 0 | 70 | 0 | 75 | 5 | 79 | activity TRZAS (crop plant) [1]: 30%; activity HORVS (crop plant) [5]: 50%; Difference of the soil types Δ^D, MATCH ([6]; IU/EC73 soil vs IU soil): Δ^D + 5%; activity HORVS IU soil (crop plant) ([9]; IU soil): 0%; Difference of the soil types, HORVS ([9]; IU/EC73 soil vs IU soil): 0%; activity HORVS IU/EC73 soil (crop plant) ([9]; IU/EC73 soil): 0%; activity TRZAS (crop plant) ([10]; Incorporation): 100%; activity TRZAS (crop plant) ([10]; PE application): 65%; activity LOLPE ([16]; Irrigation from above): 55%; activity LOLPE ([16]; Irrigation from below): 48%; activity LOLSS resistant [17]: 70%; activity LOLSS sensitive [17]: 70%; Difference Δ^D activity resistant to activity sensitive, LOLSS [17]: Δ^D ± 0%; activity AVEFA ([18]; Irrigation from above): 30%; activity AVEFA ([18]; Irrigation from below): 30%; activity HORVS (crop plant) [19]: 70%
CC(C)N(C(=O)COc1nnc(C(F)(F)F)s1)c1ccc(F)cc1 [(A) flufenacet, N-(4-fluorophenyl)-N-(1-methylethyl)-2-[[5-(trifluoromethyl)-1,3,4-thiadiazol-2-yl]oxy]acetamide] | 0 | 0 | 30 | 30 | 49 | 35 | 80 | 0 | 65 | 70 | 90 | 70 | 60 | 80 | 70 | 90 | 80 | 89 | 0 | 60 | Difference Δ^D activity resistant to activity sensitive, STEME [2]: Δ^D ± 0%; activity LOLPE ([16]; Irrigation from above): 80%; activity LOLPE ([16]; Irrigation from below): 78%; activity LOLSS resistant [17]: 10%; activity LOLSS sensitive [17]: 85%; activity AVEFA ([18]; Irrigation from above): 85%; activity AVEFA ([18]; Irrigation from below): 50%

From US20110152088A1, “Herbicidal Composition Comprising Flufenacet” (BAYER CROPSCIENCE AG, priority 2009, published 2011)
